Measured values taken from patent publication US11944605B2, “Rapamycin analogs and uses thereof” (Janssen Pharmaceutica NV, priority 2018, dated 2024).

System: pS6K1 (p-p70 S6 Kinase (Thr389)) in MCF-7 cells
Assay: AlphaLISA Ultra pS6K1 Assay
Type: cell-based
Conditions: Homo sapiens, 1.5 h; MCF7 cells, 90 min
Experimental: AlphaLISA Ultra pS6K1 Assay
1. Seed MCF-7 cells in Corning 3701 plate and incubate for 20˜24 hour. 12,000˜16,000 cells will be seeded in 36 μL medium per well.
2. Change the culture medium with fresh medium and incubate for another 2 hours.
3. Add 12 μL (4×) compounds into the cell plate by HAMILTON. Final DMSO concentration is 0.5%. Incubate for 90 minutes.
4. Aspirate […] by HAMILTON, 10 μL rest per well.
5. Add 10 μL 2× lysis buffer using HAMILTON; total volume in wells is 20 μL. Allow cells to shake for 30 min. Cover plate by plastic foil and store plate at −80° C. up to analysis.
6. Thaw cell lysate at RT and transfer 10 μL lysate to assay plate (Optiplate-384).
7. Add 5 μL acceptor beads into assay plate and incubation for 2 hours
8. Add 5 μL donor beads and incubation for 2 hours
9. Count the plate by EnSpire Multimode Plate Reader

| SMILES | IC50 [nM] |
| --- | --- |
| CO[C@@H]1C[C@H](C[C@@H](C)[C@@H]2CC(=O)[C@H](C)/C=C(\C)[C@@H](O)[C@@H](OC)C(=O)[C@H](C)C[C@H](C)/C=C/C=C/C=C(\C)[C@H](OC[C@@H](O)[C@@H](O)[C@H](O)[C@H](O)CO)C[C@@H]3CC[C@@H](C)[C@@](O)(O3)C(=O)C(=O)N3CCCC[C@H]3C(=O)O2)CC[C@H]1O [Compound I-57] | < 0.1 |
| CO[C@@H]1C[C@H](C[C@@H](C)[C@@H]2CC(=O)[C@H](C)/C=C(\C)[C@@H](O)[C@@H](OC)C(=O)[C@H](C)C[C@H](C)/C=C/C=C/C=C(\C)[C@@H](OC[C@@H](O)[C@@H](O)[C@H](O)[C@H](O)CO)C[C@@H]3CC[C@@H](C)[C@@](O)(O3)C(=O)C(=O)N3CCCC[C@H]3C(=O)O2)CC[C@H]1O [Compound I-58] | 0.1 to 1 |
| CO[C@@H]1C[C@H](C[C@@H](C)[C@@H]2CC(=O)[C@H](C)/C=C(\C)[C@@H](O)[C@@H](OC)C(=O)[C@H](C)C[C@H](C)/C=C/C=C/C=C(\C)C(OC[C@@H](O)[C@@H](O)[C@H](O)[C@H](O)CO)C[C@@H]3CC[C@@H](C)[C@@](O)(O3)C(=O)C(=O)N3CCCC[C@H]3C(=O)O2)CC[C@H]1O (some centres unmarked) [Compound I-63] | ≥ 100 |
| CO[C@@H]1C[C@H](C[C@@H](C)[C@@H]2CC(=O)[C@H](C)/C=C(\C)[C@@H](O)[C@@H](OC)C(=O)[C@H](C)C[C@H](C)/C=C/C=C/C=C(\C)[C@H](OCCOCC(COCCO)COCCO)C[C@@H]3CC[C@@H](C)[C@@](O)(O3)C(=O)C(=O)N3CCCC[C@H]3C(=O)O2)CC[C@H]1O [Compound I-64] | 1 to 10 |
| CO[C@@H]1C[C@H](C[C@@H](C)[C@@H]2CC(=O)[C@H](C)/C=C(\C)[C@@H](O)[C@@H](OC)C(=O)[C@H](C)C[C@H](C)/C=C/C=C/C=C(\C)[C@@H](OCCOCC(COCCO)COCCO)C[C@@H]3CC[C@@H](C)[C@@](O)(O3)C(=O)C(=O)N3CCCC[C@H]3C(=O)O2)CC[C@H]1O [Compound I-65] | 0.1 to 1 |
| CO[C@@H]1C[C@H](C[C@@H](C)[C@@H]2CC(=O)[C@H](C)/C=C(\C)[C@@H](O)[C@@H](OC)C(=O)[C@H](C)C[C@H](C)/C=C/C=C/C=C(\C)[C@H](OCCOCCO)C[C@@H]3CC[C@@H](C)[C@@](O)(O3)C(=O)C(=O)N3CCCC[C@H]3C(=O)O2)CC[C@H]1OCCOCCO [Compound I-66] | 1 to 10 |
| CO[C@@H]1C[C@H](C[C@@H](C)[C@@H]2CC(=O)[C@H](C)/C=C(\C)[C@@H](O)[C@@H](OC)C(=O)[C@H](C)C[C@H](C)/C=C/C=C/C=C(\C)[C@@H](OCCOCCO)C[C@@H]3CC[C@@H](C)[C@@](O)(O3)C(=O)C(=O)N3CCCC[C@H]3C(=O)O2)CC[C@H]1OCCOCCO [Compound I-67] | 0.1 to 1 |
| CO[C@@H]1C[C@H](C[C@@H](C)[C@@H]2CC(=O)[C@H](C)/C=C(\C)[C@@H](O)[C@@H](OC)C(=O)[C@H](C)C[C@H](C)/C=C/C=C/C=C(\C)[C@H](OCCOCCOCCO)C[C@@H]3CC[C@@H](C)[C@@](O)(O3)C(=O)C(=O)N3CCCC[C@H]3C(=O)O2)CC[C@H]1OCCOCCOCCO [Compound I-72] | 1 to 10 |
| CO[C@@H]1C[C@H](C[C@@H](C)[C@@H]2CC(=O)[C@H](C)/C=C(\C)[C@@H](O)[C@@H](OC)C(=O)[C@H](C)C[C@H](C)/C=C/C=C/C=C(\C)[C@@H](OCCOCCOCCO)C[C@@H]3CC[C@@H](C)[C@@](O)(O3)C(=O)C(=O)N3CCCC[C@H]3C(=O)O2)CC[C@H]1OCCOCCOCCO [Compound I-73] | 1 to 10 |
| CNC(=O)OCCO[C@@H]1C[C@@H]2CC[C@@H](C)[C@@](O)(O2)C(=O)C(=O)N2CCCC[C@H]2C(=O)O[C@H]([C@H](C)C[C@@H]2CC[C@@H](OCCO)[C@H](OC)C2)CC(=O)[C@H](C)/C=C(\C)[C@@H](O)[C@@H](OC)C(=O)[C@H](C)C[C@H](C)/C=C/C=C/C=C/1C [Compound I-74] | 0.1 to 1 |
| CNC(=O)OCCO[C@H]1C[C@@H]2CC[C@@H](C)[C@@](O)(O2)C(=O)C(=O)N2CCCC[C@H]2C(=O)OC([C@H](C)CC2CC[C@@H](OCCO)[C@H](OC)C2)CC(=O)[C@H](C)/C=C(\C)[C@@H](O)[C@@H](OC)C(=O)[C@H](C)C[C@H](C)/C=C/C=C/C=C/1C (some centres unmarked) [Compound I-75] | < 0.1 |
| CO[C@@H]1C[C@H](C[C@@H](C)[C@@H]2CC(=O)[C@H](C)/C=C(\C)[C@@H](O)[C@@H](OC)C(=O)[C@H](C)C[C@H](C)/C=C/C=C/C=C(\C)C(OCCOCCO)C[C@@H]3CC[C@@H](C)[C@@](O)(O3)C(=O)C(=O)N3CCCC[C@H]3C(=O)O2)CC[C@H]1OCCOCCO (some centres unmarked) [Compound I-76] | 1 to 10 |
| CO[C@@H]1C[C@H](C[C@@H](C)[C@@H]2CC(=O)[C@H](C)/C=C(\C)[C@@H](O)[C@@H](OC)C(=O)[C@H](C)C[C@H](C)/C=C/C=C/C=C(\C)C(OCCOCCOCCO)C[C@@H]3CC[C@@H](C)[C@@](O)(O3)C(=O)C(=O)N3CCCC[C@H]3C(=O)O2)CC[C@H]1OCCOCCOCCO (some centres unmarked) [Compound I-78] | 1 to 10 |
| CO[C@@H]1C[C@H](C[C@@H](C)[C@@H]2CC(=O)[C@H](C)/C=C(\C)[C@@H](O)[C@@H](OC)C(=O)[C@H](C)C[C@H](C)/C=C/C=C/C=C(\C)[C@H](OCCOCCOC(F)(F)C(F)(F)F)C[C@@H]3CC[C@@H](C)[C@@](O)(O3)C(=O)C(=O)N3CCCC[C@H]3C(=O)O2)CC[C@H]1OCCO [Compound I-79] | 1 to 10 |
| CO[C@@H]1C[C@H](C[C@@H](C)[C@@H]2CC(=O)[C@H](C)/C=C(\C)[C@@H](O)[C@@H](OC)C(=O)[C@H](C)C[C@H](C)/C=C/C=C/C=C(\C)[C@@H](OCCOCCOC(F)(F)C(F)(F)F)C[C@@H]3CC[C@@H](C)[C@@](O)(O3)C(=O)C(=O)N3CCCC[C@H]3C(=O)O2)CC[C@H]1OCCO [Compound I-80] | 0.1 to 1 |
| CNC(=O)OCCOC1C[C@@H]2CC[C@@H](C)[C@@](O)(O2)C(=O)C(=O)N2CCCC[C@H]2C(=O)O[C@H]([C@H](C)C[C@@H]2CC[C@@H](OCCO)[C@H](OC)C2)CC(=O)[C@H](C)/C=C(\C)[C@@H](O)[C@@H](OC)C(=O)[C@H](C)C[C@H](C)/C=C/C=C/C=C/1C (some centres unmarked) [Compound I-81] | 1 to 10 |
| CO[C@@H]1C[C@H](C[C@@H](C)[C@@H]2CC(=O)[C@H](C)/C=C(\C)[C@@H](O)[C@@H](OC)C(=O)[C@H](C)C[C@H](C)/C=C/C=C/C=C(\C)[C@H](OCCOCCOC(F)(F)F)C[C@@H]3CC[C@@H](C)[C@@](O)(O3)C(=O)C(=O)N3CCCC[C@H]3C(=O)O2)CC[C@H]1OCCO [Compound I-82] | 0.1 to 1 |
| CO[C@@H]1C[C@H](C[C@@H](C)[C@@H]2CC(=O)[C@H](C)/C=C(\C)[C@@H](O)[C@@H](OC)C(=O)[C@H](C)C[C@H](C)/C=C/C=C/C=C(\C)C(OCCOCCOCC(F)(F)F)C[C@@H]3CC[C@@H](C)[C@@](O)(O3)C(=O)C(=O)N3CCCC[C@H]3C(=O)O2)CC[C@H]1OCCO (some centres unmarked) [Compound I-86] | < 0.1 |
| CO[C@@H]1C[C@H](C[C@@H](C)[C@@H]2CC(=O)[C@H](C)/C=C(\C)[C@@H](O)[C@@H](OC)C(=O)[C@H](C)C[C@H](C)/C=C/C=C/C=C(\C)C(OCCOCCOC(F)(F)C(F)(F)F)C[C@@H]3CC[C@@H](C)[C@@](O)(O3)C(=O)C(=O)N3CCCC[C@H]3C(=O)O2)CC[C@H]1OCCO (some centres unmarked) [Compound I-87] | < 0.1 |
| CO[C@@H]1C[C@H](C[C@@H](C)[C@@H]2CC(=O)[C@H](C)/C=C(\C)[C@@H](O)[C@@H](OC)C(=O)[C@H](C)C[C@H](C)/C=C/C=C/C=C(\C)C(OCCOCCOC(F)(F)F)C[C@@H]3CC[C@@H](C)[C@@](O)(O3)C(=O)C(=O)N3CCCC[C@H]3C(=O)O2)CC[C@H]1OCCO (some centres unmarked) [Compound I-88] | < 0.1 |
| COCCOCCO[C@@H]1C[C@@H]2CC[C@@H](C)[C@@](O)(O2)C(=O)C(=O)N2CCCC[C@H]2C(=O)O[C@H]([C@H](C)C[C@@H]2CC[C@@H](OCCOC)[C@H](OC)C2)CC(=O)[C@H](C)/C=C(\C)[C@@H](O)[C@@H](OC)C(=O)[C@H](C)C[C@H](C)/C=C/C=C/C=C/1C [Compound I-89] | 1 to 10 |
| CO[C@@H]1C[C@H](C[C@@H](C)[C@@H]2CC(=O)[C@H](C)/C=C(\C)[C@@H](O)[C@@H](OC)C(=O)[C@H](C)C[C@H](C)/C=C/C=C/C=C(\C)C(OCCOCCOCC(F)(F)F)C[C@@H]3CC[C@@H](C)[C@@](O)(O3)C(=O)C(=O)N3CCCC[C@H]3C(=O)O2)CC[C@H]1O (some centres unmarked) [Compound I-91] | < 0.1 |
| COCCOCCOC1C[C@@H]2CC[C@@H](C)[C@@](O)(O2)C(=O)C(=O)N2CCCC[C@H]2C(=O)OC([C@H](C)CC2CC[C@@H](OCCOC)[C@H](OC)C2)CC(=O)[C@H](C)/C=C(\C)[C@@H](O)[C@@H](OC)C(=O)[C@H](C)C[C@H](C)/C=C/C=C/C=C/1C (some centres unmarked) [Compound I-92] | 0.1 to 1 |
| CO[C@@H]1C[C@H](C[C@@H](C)[C@@H]2CC(=O)[C@H](C)/C=C(\C)[C@@H](O)[C@@H](OC)C(=O)[C@H](C)C[C@H](C)/C=C/C=C/C=C(\C)C(OCCOCCOCCOCCOCCOCCOCCOCCOCCOCCO)C[C@@H]3CC[C@@H](C)[C@@](O)(O3)C(=O)C(=O)N3CCCC[C@H]3C(=O)O2)CC[C@H]1O (some centres unmarked) [Compound I-98] | 1 to 10 |
| CO[C@@H]1C[C@H](C[C@@H](C)[C@@H]2CC(=O)[C@H](C)/C=C(\C)[C@@H](O)[C@@H](OC)C(=O)[C@H](C)C[C@H](C)/C=C/C=C/C=C(\C)C(OCCOCC(COCCO)COCCO)C[C@@H]3CC[C@@H](C)[C@@](O)(O3)C(=O)C(=O)N3CCCC[C@H]3C(=O)O2)CC[C@H]1O (some centres unmarked) [Compound I-100] | 1 to 10 |
| CCCCCCOC1C[C@@H]2CC[C@@H](C)[C@@](O)(O2)C(=O)C(=O)N2CCCC[C@H]2C(=O)O[C@H]([C@H](C)C[C@@H]2CC[C@@H](O)[C@H](OC)C2)CC(=O)[C@H](C)/C=C(\C)[C@@H](O)[C@@H](OC)C(=O)[C@H](C)C[C@H](C)/C=C/C=C/C=C/1C (some centres unmarked) [Compound I-103] | 0.1 to 1 |
